The results in this text go back to patent US8222414B2, “Indole compounds as an inhibitor of cellular necrosis” (LG Life Sciences Ltd., priority 2007, dated 2012).

Holding throughout (type): cell-based
The subject of data set [1] is primary hepatocytes isolated from rats. In words: Hepatocyte protective effect against substances deriving hepatocyte toxicity (WST-1 cell viability). The settings on record: for EC50: Rattus norvegicus, Hepatocyte, viability after 24-48 h, WST-1; for viability: primary rat hepatocytes. On the procedure:
Various endogenous/exogenous attacks on the cells trigger the mechanisms of cell death which is broadly classified into two types, i.e. apoptosis or necrosis. Using these cell death mechanisms, in the present experimental example, primacy hepatocytes isolated from rats were treated with drugs which were clinically shown to result in serious side-effects of hepatocyte toxicity or various chemicals which derive cell death, and the compounds synthesized in the Examples were estimated for their hepatocyte protective effects, after 24-48 h. The substances used to derive hepatocyte death include CCl4, ActD, H2O2, doxorubicin, anti-Fas Ab/Actinomycin D, acetaminophen, EtOH, CdCl2, palmitate, stearate, cyclophosphamide, terfenadine, diclofenac, simvastatin, and adefovir. Primary hepatocytes were isolated using the method of Seglen P O (Experimental Cell Research 74 (1972) pp 450-454). Briefly, hepatocytes were isolated according to the two-step collagenase perfusion method, and dead cells were removed by low speed (500 rpm) centrifugation for 10 min using percoll gradient (Kreamer B L etc, In Vitro Cellular & Developmental Biology 22 (1986) pp 201-211). During this step, the viability of cells was maintained 90% or above. The cells were suspended in HepatoZYME media (Gibco BRL), and the number of cells was counted. 1.5×10^4 cells in 100 μl were placed into the collagen-coated 96-well plate (BD biocoat), and adhered on the bottom for 3-4 h.
In order to assess the hepatocyte protective effect, above adhered cells were pretreated with the Example compounds for 30 min. […] 30 min after the treatment by compounds, cells were treated by the substances deriving hepatocyte death or hepatotoxic drugs at the concentrations indicated in Table 1. After 24-48 h, the viability of cells was determined to estimate the hepatocyte protective effects. The viability of cells was determined using WST-1 (MK-400, […]) method by the absorbance at 440 nm. Hepatocyte protective effects of the Example compounds were represented by “EC50” which was calculated from measured values. “EC50” herein means the concentration of the compound at which 50% of maximum protective effect is observed in the experiment.
(In general: Formazan colour is commonly taken as a measure of viable cells.)

For data set [2] the test system is unchanged. Briefly: Cell protective effects against doxorubicin in hepatocytes (WST-1 cell viability). The conditions noted are these: Hepatocyte; primary rat hepatocytes pretreated with compound for 30 min, then doxorubicin; viability by WST-1 after 24-48 h. In outline:
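Rat primary hepatocytes from two-step collagenase perfusion were pretreated for 30 min with compound: 5-step 2- or 3-fold series from 30, 10 or 1 µM, 0.2% DMSO. Doxorubicin or another hepatotoxicant (e.g., CCl4, acetaminophen, H2O2) was then added. Viability after 24–48 h was read by WST-1 (A440), and EC50 was taken as half-maximal protection.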

In a further data set the test system is SK-N-MC cells. Briefly: Protective effect when tBHP was treated on brain cells (LDH assay). The settings on record: Homo sapiens, tBHP 400 uM, 6 h. On the procedure:
In order to assess the protective effect on brain cells, 2×10^4 brain cells were distributed into the 96-well plate using DMEM media (Gibco, 10% FBS), and incubated for 24 h. The Example compounds were serially diluted by 3-fold to the final concentration of 30, 10, 3, 1, 0.3, 0.1 uM, by which each well was treated for 1 h. Cells were treated with tBHP at the final concentration of 400 uM, and incubated for 6 h. 50 uL of media was taken from each well to proceed with LDH assay (Promega). In LDH assay, 50 uL of media was mixed with 50 uL of assay solution. After the reaction for 30 min at room temperature, absorbance was measured at 490 nm using SpectraMax (Molecular Device).

For another data set, the system named is Linm5F cells. In words: Protective effect when tBHP was treated on pancreatic cells (SRB method). The settings on record: Pancreatic beta cell, tBHP 400 uM, 5 h. On the procedure: (§1) In order to determine the protective effect on pancreatic cells, Linm5F cells, a sort of the beta cells, were distributed into the 96-well plate in the amount of 2×10^4 cells/well, and incubated for 24 h. The Example compounds were serially diluted by 3-fold to the final concentration of 30, 10, 3, 1, 0.3, 0.1 uM, by which each well was treated for 1 h. Cells were treated with tBHP at the final concentration of 400 uM, and further incubated for 5 h. Protective effects were determined using SRB (Sulforhodamine B Protein) method in which total amount of cellular protein is stained. Briefly, cells were incubated for 5 h, 50 uL of 4% formaldehyde solution was added to each well to fix the cells, and stored for about 30 min at room temperature. After discarding the media, each well was washed with distilled water 2-3 times, and the plate was dried in an oven at 50°. 50 uL of SRB solution was added to each well, and placed for about 30 min at room temperature. After removing SRB solution, the plate was washed with 1% acetic acid solution 2-3 times. After drying the plate in an oven at 50°, 100 uL of 10 mM Tris was added to elute SRB which was staining the intracellular protein.
For orientation: Sulforhodamine B stains cellular protein and so reports cell mass.

The next data set has as its system H9C2 cells. Briefly: Protective effect when tBHP was treated on cardiac cells (SRB method). The conditions noted are these: Rattus norvegicus, tBHP 400 uM, 2 h, H9C2 cardiomyocytes. How it is done: as §1, with “After drying the plate in an oven at 50°, 100 uL of 10 mM Tris was added to elute SRB which was staining the intracellular protein.” left out
In order to assess the protective effect on cardiac cells, H9C2 cells were distributed in the amount of 1.5×10^4 cells/well, and incubated for 24 h. […] Protective effect of each compound was determined using the same SRB method as in Linm5F of above mentioned 2).

Molecules are shown by their SMILES.

As to `O=C(O)C[C@@H]1CSC(c2cc3cc(Cl)cc(NC4CCCC4)c3[nH]2)=N1` [Example 4, [(R)-2-(5-chloro-7-cyclopentylamino-1H-indol-2-yl)-4,5-dihydro-thiazol-4-yl]-acetic acid], the EC50 (in general, the concentration needed to bring the measured effect to its halfway point) in data set [1] (simvastatin 16 μM) was under 10000 nM; in data set [1] (terfenadine 10 μM), 400 nM; in data set [2], 300 nM; with SK-N-MC cells, at most 100 nM. Moreover, the viability – broadly, a read-out of living cells in per cent, often relative to untreated cells – in data set [1] (adefovir 100 μM, compound at 3-30 uM) was determined as 50%; in data set [1] (diclofenac 350 μM, compound at 3-100 uM), 40%.
In the case of `O=C(O)C[C@H]1CSC(c2cc3cccc(NC4CCCC4)c3[nH]2)=N1` [Example 14, [(S)-2-(7-cyclopentylamino-1H-indol-2-yl)-4,5-dihydro-thiazol-4-yl]-acetic acid], the EC50 in data set [2] was 190 nM; in the data set on Linm5F cells, 150 nM.
For `Cc1cc(NCC2CCOCC2)c2[nH]c(C3=N[C@@H](CC(=O)O)CS3)cc2c1` [Example 22, [(S)-2-(5-methyl-7-(tetrahydropyran-4-yl)methylamino-1H-indol-2-yl)-4,5-dihydro-thiazol-4-yl]-acetic acid], the EC50 in data set [2] worked out at 250 nM; with Linm5F cells, 200 nM; in the data set on H9C2 cells, 170 nM.
With `O=C(O)C[C@@H]1CSC(c2cc3cc(Oc4ccccc4)cc(NC4CCCC4)c3[nH]2)=N1` [Example 85, [(R)-2-(5-phenoxy-7-cyclopentylamino-1H-indol-2-yl)-4,5-dihydro-thiazol-4-yl]-acetic acid], the EC50 in data set [2] was found to be 400 nM; in the data set on H9C2 cells, 700 nM.
For the molecule `Clc1cc(NC2CCOCC2)c2[nH]c(C3=N[C@@H](CCN4CCN(c5ccccn5)CC4)CS3)cc2c1` [Example 254, (5-Chloro-2-{(S)-4-[1-(pyridin-2-yl)piperazin-4-yl-ethyl]-4,5-dihydro-thiazol-2-yl}-1H-indol-7-yl)-(tetrahydropyran-4-yl)-amine], the EC50 in data set [2] was determined as 1000 nM.
